Assay results: patent publication US10953015B2, “Use of adenosine receptor signaling to regulate P-gp function” (CORNELL UNIVERSITY, priority 2016, dated 2021)

Experiments:
P-gp [1] = molecular target: T1, P-gp (Homo sapiens, UniProt P08183); test: Rho123 uptake assay in primary human brain endothelial cells (HBMVEC); type: cell-based; details: agonist 1 μM, Rho123 2.5 μM
T1 construct: in human primary brain endothelial cells, HBMVEC, high P-gp expression was observed; host or cells: HBMVEC (primary human brain endothelial cells)
T1 sequence (P08183 whole entry): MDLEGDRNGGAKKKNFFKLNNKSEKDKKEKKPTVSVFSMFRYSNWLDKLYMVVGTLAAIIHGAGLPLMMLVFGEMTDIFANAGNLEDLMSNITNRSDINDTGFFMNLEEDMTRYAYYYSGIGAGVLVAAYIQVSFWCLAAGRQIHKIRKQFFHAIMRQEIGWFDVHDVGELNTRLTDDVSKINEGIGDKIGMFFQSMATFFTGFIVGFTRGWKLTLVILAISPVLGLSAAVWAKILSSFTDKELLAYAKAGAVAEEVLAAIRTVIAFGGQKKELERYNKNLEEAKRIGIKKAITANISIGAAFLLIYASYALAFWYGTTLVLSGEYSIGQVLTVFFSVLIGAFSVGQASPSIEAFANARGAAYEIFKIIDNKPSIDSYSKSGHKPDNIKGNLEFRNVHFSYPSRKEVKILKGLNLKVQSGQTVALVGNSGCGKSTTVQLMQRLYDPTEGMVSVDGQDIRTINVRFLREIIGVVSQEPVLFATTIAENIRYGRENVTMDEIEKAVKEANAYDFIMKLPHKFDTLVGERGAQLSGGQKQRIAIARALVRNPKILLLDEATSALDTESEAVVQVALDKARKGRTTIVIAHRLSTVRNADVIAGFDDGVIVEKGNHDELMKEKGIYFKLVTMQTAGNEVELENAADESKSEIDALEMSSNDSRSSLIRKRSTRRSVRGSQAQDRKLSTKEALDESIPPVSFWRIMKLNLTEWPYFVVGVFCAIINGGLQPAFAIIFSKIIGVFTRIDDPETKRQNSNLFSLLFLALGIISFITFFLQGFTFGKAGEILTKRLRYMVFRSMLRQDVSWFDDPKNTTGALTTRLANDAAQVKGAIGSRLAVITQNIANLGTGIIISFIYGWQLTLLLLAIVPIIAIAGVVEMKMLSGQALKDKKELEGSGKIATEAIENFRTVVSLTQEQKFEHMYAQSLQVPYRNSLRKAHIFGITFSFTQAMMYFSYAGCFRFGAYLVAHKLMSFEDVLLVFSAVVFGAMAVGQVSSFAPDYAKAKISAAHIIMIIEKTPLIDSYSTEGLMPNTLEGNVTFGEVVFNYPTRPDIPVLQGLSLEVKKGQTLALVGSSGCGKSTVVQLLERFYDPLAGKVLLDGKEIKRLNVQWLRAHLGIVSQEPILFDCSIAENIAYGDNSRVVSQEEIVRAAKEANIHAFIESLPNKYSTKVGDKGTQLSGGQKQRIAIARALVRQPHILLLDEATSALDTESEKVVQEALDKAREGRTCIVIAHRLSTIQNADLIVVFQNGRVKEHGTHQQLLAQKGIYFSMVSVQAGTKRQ
Method: Human brain endothelial cells and primary brain endothelial cells were plated onto 48-well plates until 100% confluence was reached, and media were replaced with fresh media containing Rho123 (2.5 μM) with different concentrations of Lexiscan®, NECA, or PSC833. Reaction was halted by adding 250 μl of ice-cold PBS. Plate was washed with 250 μl of ice-cold PBS 3 times and lysed with lysis buffer. Each sample was analyzed using Synergy Fluometer (Biotek), with excitation at 488 nm and emission at 523 nm. Concentration of Rho123 was analyzed using standard curve created by serial dilution of Rho123. Final concentration of Rho123 was normalized using protein concentration of lysate measured using Bradford assay (Bio-Rad). For microscopic analysis of Rho123 uptake, cells were cultured on coverslip and Rho123 was treated with or without Lexiscan® or NECA with DMSO as control. Reaction was terminated by adding ice-cold PBS and washed with ice-cold PBS 3 times. Cells were fixed with PFA and costained with anti-human P-gp. Cells were visualized with a Zeiss fluorescent microscope and captured with axiovision software. FIG. 4G is a schematic illustration of the Rho123 uptake assay.

[2] = cited from earlier work
P-gp [3] = test: P-gp expression in Caco-2 human tumor cell line (IFA MFI, western blot); type: cell-based; details: 1 μM for 30 minutes (IFA), 1, 0.5, 0.1 μM (western blot)
Method: FIG. 19A are fluorescence microscopy images of Caco-2 cells (originally isolated from a human primary colonic tumor) grown on coverslips and treated with Lexiscan® (1 μM) or A1193 (1 μM), or DMSO (vehicle) control for 30 minutes. Next, cells were fixed, permeabilized, and stained with an antibody to P-gp. After washing, cells were mounted with DAPI for nuclear staining. FIG. 19B is a graph of the MFI of P-gp. FIG. 19C is a graph of densitometric analysis of a western blot of Caco-2 cells treated with Lexiscan® in varying concentrations (1, 0.5, and 0.1 μM). Densitometric analysis was performed to quantify the amount of P-gp in western blot. Statistics: two tailed student's t test for FIG. 19B, *<0.5.
Applicants also evaluated whether A2A AR agonists can modulate P-gp expression in a human tumor cell line, Caco-2 cells. Briefly, Caco-2 cells (originally isolated from a human tumor) were grown on coverslips and treated with Lexiscan®, A1193, or vehicle control for 30 minutes. Cells were then fixed, permeabilized, and stained with an antibody to P-gp. After washing, cells were mounted with DAPI for nuclear staining (FIG. 19A). The mean fluorescence intensity (MFI) of P-gp was quantified and graphed in FIG. 19B.

P-gp [4] = test: P-gp expression in intestinal organoids (mean fluorescence intensity); type: cell-based; details: organoids from C57BL6 mouse intestine; 1 μM; 15 minutes
Method: Freshly isolated intestines from wildtype […] mice were cultured and grown to confluency to generate Organoids, which are 3D organotypic cultures derived from primary intestinal tissues (either tissue subunits or single cells), embryonic stem cells (“ESCs”), and induced pluripotent stem cells (“iPSCs”). Organoids were treated with 1 μM Lexiscan® or A1193 (A2A AR agonist) for 15 minutes, washed, and stained with antibodies to P-gp and DAPI. Mean fluorescent intensity was measured in each organoid. Data presented as a measure of P-gp expression between the two agonists. *=significance where P<0.05.
Applicants next evaluated whether A2A AR agonists can modulate P-gp expression in gut epithelial cells. Freshly isolated intestines from wildtype C57BL6 mice were cultured and grown to confluency to generate Organoids, which are three-dimensional organotypic cultures derived from primary intestinal tissues (either tissue subunits or single cells), embryonic stem cells (“ESCs”), or induced pluripotent stem cells (“iPSCs”). Organoids were treated with the A2A AR agonists Lexiscan® or A1193 for 15 minutes, washed, and stained with antibodies to P-gp and DAPI.

P-gp [5] = test: Epirubicin accumulation and P-gp staining in MCF7 cells (fluorescence microscopy); type: cell-based, human; details: 1 μM
Method: MCF7 cells (human breast cancer cell line) were cultured in 24 well plates until they reached confluency. FIGS. 17A-17C are images of western blots of cells treated with vehicle control (i.e., DMSO) (“D”) or 1 μM of the broad spectrum AR agonist NECA (“N”) (FIG. 17A), 1 μM of the A2A AR agonist Lexiscan® (“L”) (FIG. 17B), or 1 μM of the A2B AR agonist BAY60 (“B”) (FIG. 17C), respectively for 24, 48, 72 hours. Cells were lysed with lysis buffer and expression levels of P-gp, MMP9, or VEGF analyzed by western blot. GAPDH was used as loading a control. FIG. 17D is a graph of experimental results showing that Lexiscan® down-regulates P-gp expression in MCF7 breast cancer cells. MCF7 breast cancer cells were treated with Lex (0.25 μM) concomitant with Rhodamine 123 (“Rho123”). […] Students T test, P<0.001. […] FIG. 17E is a fluorescence microscopy image showing MCF7 breast cancer cells grown on coverslips and treated with vehicle (DMSO, control), or A2 AR agonists, Lexiscan® (1 μM) or A1193 (1 μM) for 15 minutes in the presence of epirubicin. Cells were stained with an antibody to P-gp and mounted with DAPI. FIG. 17F is a graph of the fluorescent intensity quantified from FIG. 17E by measuring the mean fluorescent intensity (“MFI”) of epirubicin (pink) that is present in cell nuclei. ***=P<0.0001.
To further assess the modulation of A2A AR agonists on P-gp expression in MCF7 cells, applicants evaluated the accumulation of the P-gp substrate epirubicin in MCF7 cells. MCF7 cells were treated with DMSO (control), 1 μM Lexiscan®, or 1 μM of the A2A AR agonist A1193. […] In this case, the down-regulation of P-gp expression is equivalent to down-regulation of its function (Kim et al., “A2A Adenosine Receptor Modulates Drug Efflux Transporter P-Glycoprotein at the Blood-Brain Barrier,” J Clin Invest. 126(5):1717-33 (2016), which is hereby incorporated by reference in its entirety).

Row | Compound | Rho123 uptake / P-gp function (P-gp [1]) | half-life [2] [h] | P-gp expression (P-gp [3]) | P-gp expression (mean fluorescent intensity) (P-gp [4]) | P-gp expression (antibody staining) (P-gp [5]; 15 minutes) | Epirubicin accumulation (MFI in cell nuclei) (P-gp [5]; 15 minutes in the presence of epirubicin)
1 | CCNC(=O)[C@H]1O[C@@H](n2cnc3c(N)ncnc32)[C@H](O)[C@@H]1O [NECA, (2S,3S,4R,5R)-5-(6-aminopurin-9-yl)-N-ethyl-3,4-dihydroxyoxolane-2-carboxamide] | showed a trend in P-gp suppression, but it did not reach statistical significance | 5 |  |  |  | 
2 | CNC(=O)c1cnn(-c2nc(N)c3ncn([C@@H]4O[C@H](CO)[C@@H](O)[C@H]4O)c3n2)c1 [Lexiscan®, 1-[6-amino-9-[(2R,3R,4S,5R)-3,4-dihydroxy-5-(hydroxymethyl)oxolan-2-yl]purin-2-yl]-N-methylpyrazole-4-carboxamide] |  |  | down-regulates P-gp expression in Caco-2 | significantly down-regulates P-gp expression in freshly isolated and cultured colonic organoids | down-regulate P-gp expression | retained more epirubicin than those treated with control
